Measurements: patent US20060235225A1, “Crystals of 5-[2-amino-4-(2-furyl) pyrimidin-5-yl]-1-methylpyridin-2(1H)-one and processes for preparing the same” (Eisai Co., Ltd., priority 2005, published 2006)

Experiments:
[1] = Stability against light (impurity content by HPLC after storage); assay type: physicochemical
Experimental: The respective crystals obtained in Example 1 and Comparative Example 2 (the crystal form A and the crystal form B) were stored for 1, 3 and 6 months under conditions of 25° C./1000 Lx (apparatus for light stability test; Nagano Science Co. Ltd) and 25° C./dark (control), and impurity contents were measured by HPLC method to investigate stability against exposure to light for the respective crystals. The conditions for HPLC method are shown below.
(Calculation Method of Impurity Content)
Individual impurity content (%)=(Peak area of individual impurity)/(total of all peak areas)×100
Peaks with impurity contents of 0.05% or greater were recorded as impurity peaks, and their total was recorded as the impurity content of the crystals. Impurity content (%)=Total of individual impurity contents (%)

[2] = Variable-temperature powder X-ray diffraction and DSC (change of crystal form on heating); assay type: physicochemical
Experimental: The measuring conditions were the same as for the powder X-ray diffraction pattern measurement described above, except for the measuring temperature.
DSC analysis was conducted under the following conditions, using approximately 3 mg each of the crystals obtained in Example 1 and Comparative Example 2 (the crystal form A and the crystal form B). The DSC patterns of the respective crystals are shown in FIG. 6 and FIG. 7 (magnification of 40-230° C.), and the endothermic peaks and exothermic peaks are shown in Table 2. • Measuring apparatus: DSC822^e by Mettler Toledo • Sample pan material: aluminum • Nitrogen gas flow (40 mL/min) • Start temperature: 25° C. • End temperature: 260° C.
Temperature elevating rate: 5° C./min

Impurity content ([1]; 25° C./1000Lx, storage period 1 month, listed as B) | Impurity content ([1]; 25° C./1000Lx, storage period 3 months, listed as B) | Impurity content ([1]; 25° C./1000Lx, storage period 6 months, listed as B) | Impurity content ([1]; 25° C./dark (control), storage period 1 month, listed as B) | Impurity content ([1]; 25° C./dark (control), storage period 3 months, listed as B) | Impurity content ([1]; 25° C./dark (control), storage period 6 months, listed as B) | Impurity content ([1]; Initial, before storage, HPLC, listed as B) | Temperature of transformation to another crystal form (B′) ([2]; heating 30° C. to 260° C.) | Temperature of transformation to the crystal form A ([2]; heating 30° C. to 260° C.) | Impurity content ([1]; 25° C./1000Lx, storage period 1 month, listed as A) | Impurity content ([1]; 25° C./1000Lx, storage period 3 months, listed as A) | Impurity content ([1]; 25° C./1000Lx, storage period 6 months, listed as A) | Impurity content ([1]; 25° C./dark (control), storage period 1 month, listed as A) | Impurity content ([1]; 25° C./dark (control), storage period 3 months, listed as A) | Impurity content ([1]; 25° C./dark (control), storage period 6 months, listed as A) | Impurity content ([1]; Initial, before storage, HPLC, listed as A) | SMILES | Stability against exposure to light (comparison of crystal forms) ([1]; 25° C./1000 Lx, up to 6 months) | Change in crystal form by heating ([2]; sample temperature 30° C. to 260° C.)
0.48% | 0.52% | 0.81% | 0.28% | 0.25% | 0.23% | 0.34% | about 90 °C | about 170 °C |  |  |  |  |  |  |  | Cn1cc(-c2cnc(N)nc2-c2ccco2)ccc1=O [Crystal form B, 5-[2-amino-4-(2-furyl)pyrimidin-5-yl]-1-methylpyridin-2(1H)-one] |  | 
 |  |  |  |  |  |  |  |  | 0.10% | 0.07% | 0.08% | 0.14% | 0.12% | 0.12% | 0.06% | Cn1cc(-c2cnc(N)nc2-c2ccco2)ccc1=O [Crystal form A, 5-[2-amino-4-(2-furyl)pyrimidin-5-yl]-1-methylpyridin-2(1H)-one] | more stable against exposure to light than the crystal form B | undergoes no change in crystal form by heating
